Results taken from patent US9463252B2, “Auristatin drug linker conjugates” (priority 2008, dated 2016).

What was measured:
[1] = tested on: DoHH-2 follicular B-cell lymphoma subcutaneous model; assay: In vivo efficacy of hBU12 conjugates in lymphoma xenograft model; design: species or system mouse; settings: FIG. 16, q4d×4 at 3 mg/kg, SCID mice
Protocol: The efficacies of Auristatin-Dipeptide hBU12 conjugates with the aryl and alkyl-maleimide Stretcher units were evaluated in a DoHH-2 follicular B-cell lymphoma subcutaneous model. Auristatin-Dipeptide-hBU12 conjugates with average of 4 drug moieties per antibody were used. DoHH-2 cells were implanted subcutaneously into immunodeficient SCID mice (5×10^6 cells per mouse). […] Treatment was initiated when average size of tumors reached 100 mm^3; the treatment schedule was q4d×4 at 3 mg/kg.

786-O = assay: Cytotoxicity of Auristatin-Peptide-h1F6 conjugates, resazurin assay; type: cell-based, human
Excerpt: (§1) The conjugates contain approximately 4 drugs per antibody.

H3396 = assay: Cytotoxicity of Auristatin-Peptide-BR96 conjugates on Le^y positive cells; type: cell-based; settings: Table 11, ~4 drugs per antibody
Protocol: (§2) Following the procedure described as Examples 57 and 58, the activities of Auristatin-Peptide-cAC10 conjugates were evaluated on CD30^+ cells, such as Karpas 299, L428, and L540cy. The activities of Auristatin-Peptide-hBU12 conjugates were evaluated on CD19^+ cells such as Ramos, SUDHL-4, and ARH-77. The activities of Auristatin-Peptide-anti-LIV-1 conjugates were evaluated on LIV-1 positive cell lines MCF-7 and SKOV-3. The activities of Auristatin-Peptide-BR96 conjugates were evaluated on Le^y positive cells H3396, RCA, and L2987. All conjugates contain approximately 4 drugs per antibody.

L2987 = assay: as above; type: cell-based; settings: Table 11, ~4 drugs per antibody
Protocol: as §2

RCA = assay: as above; type: cell-based; settings: Table 11, ~4 drugs per antibody
Protocol: as §2

L540cy = assay: Cytotoxicity of Auristatin-Peptide-cAC10 conjugates on CD30+ cells; type: cell-based, human; settings: Table 11, ~4 drugs per antibody
Protocol: (§3) Following the procedure described in Example 57, Auristatin-Dipeptide-cAC10 antibody conjugates were evaluated on CD30+ positive cell lines, Karpas 299, L428 and L540cy. In addition, a control conjugate, cAC10-vc-PABC-MMAF, was used. […] The conjugates contain approximately 4 drugs per antibody.
as §2

Karpas 299 = assay: as above; type: cell-based, human; settings: Table 11, ~4 drugs per antibody
Protocol: as §3, §2

L428 [2] = assay: Cytotoxicity of Auristatin-Peptide-h1F6 conjugates, resazurin assay; type: cell-based
Excerpt: as §1

Caki-1 = assay: as above; type: cell-based
Excerpt: as §1

Caki-2 = assay: as above; type: cell-based
Protocol: as §1
Following the procedure described as Examples 57 and 58, Auristatin-Peptide-h1F6 conjugates were evaluated on CD70^+ cell, such as 786-O, Caki-1, Caki-2, and L428. Conjugates contain approximately 4 drugs per antibody.

[3] = tested on: L540cy Hodgkin's lymphoma subcutaneous model; assay: In vivo efficacy of cAC10 conjugates in lymphoma xenograft model; design: species or system mouse; settings: FIG. 17, q4d×3 at 1 mg/kg, SCID mice
Protocol: The efficacy of selected Auristatin-Dipeptide-cAC10 conjugates having Stretcher units with aryl or alkyl maleimides were evaluated in L540cy Hodgkin's lymphoma subcutaneous model. Auristatin-Dipeptide-cAC10 conjugates with average of 4 drug moieties per antibody were used. L540cy cells were implanted subcutaneously into immunodeficient SCID mice (5×10^6 cells per mouse). […] Treatment was initiated when average size of tumors reached 100 mm^3. The treatment schedule was q4d×3 at 1 mg/kg.

SKOV-3 = assay: Cytotoxicity of Auristatin-Peptide-anti-LIV-1 conjugates on LIV-1 positive cells; type: cell-based; settings: Table 11, ~4 drugs per antibody
Protocol: as §2

MCF-7 = assay: as above; type: cell-based; settings: Table 11, ~4 drugs per antibody
Protocol: as §2

HCT-116 (CD70−) = assay: Cytotoxicity of Auristatin-Peptide-h1F6 conjugates, CD70- control cell line; type: cell-based
Excerpt: as §1

Ramos = assay: Cytotoxicity of Auristatin-Peptide-hBU12 conjugates on CD19+ cells; type: cell-based; settings: Table 11, ~4 drugs per antibody
Protocol: as §2

ARH-77 = assay: as above; type: cell-based; settings: Table 11, ~4 drugs per antibody
Protocol: as §2

SUDHL-4 = assay: as above; type: cell-based; settings: Table 11, ~4 drugs per antibody
Protocol: as §2

L428 [4] = assay: Cytotoxicity of Auristatin-Peptide-cAC10 conjugates on CD30+ cells; type: cell-based; settings: Table 11, ~4 drugs per antibody
Protocol: as §3, §2

[5] = tested on: CD30+, CD19+, LIV-1 positive and Le^y positive cells; assay: In vitro activity of conjugates with cAC10, hBU12, anti-LIV-1 and BR96, overall statements; type: cell-based; settings: conjugates with cAC10, hBU12, Anti-LIV-1, BR96; Table 11
Protocol: as §2

[6] = tested on: CD70+ positive cell lines; settings: h1F6 conjugates, ~4 drugs/Ab
Protocol: Cytotoxicity assays are usually carried out for 96 hours after addition of test compounds. Fifty μl of resazurin dye may be added to each well during the last 4 to 6 hours of the incubation to assess viable cells at the end of culture. Dye reduction can be determined by fluorescence spectrometry using the excitation and emission wavelengths of 535 nm and 590 nm, respectively. For analysis, the extent of resazurin reduction by the treated cells can be compared to that of the untreated control cells.

U251 = assay: Cytotoxicity of Auristatin-Peptide-h1F6 conjugates, resazurin assay; type: cell-based; settings: Table 4, ~4 drugs/Ab
Excerpt: as §1

[7] = tested on: 786-O (renal cell) xenografts; settings: mouse, ip
Protocol: The efficacy of AF-Dipeptide-h1F6 conjugates were evaluated in 786-O (renal cell) xenografts. AF-Dipeptide-h1F6 conjugates with an average of 4 drug moieties per antibody were used. 786-O cells were implanted subcutaneously into immunodeficient mice (5×10^6 cells per mouse). Tumor volumes are calculated using the formula (0.5×L×W^2) where L and W are the longer and shorter of two bidirectional measurements.
In a second study, the efficacies of additional Auristatin-Dipeptide-h1F6 conjugates were evaluated in 786-O (renal cell) xenografts. Auristatin-Dipeptide-h1F6 conjugates with an average of 4 drug moieties per antibody were used. 786-O cells were implanted subcutaneously into immunodeficient mice (5×10^6 cells per mouse). Tumor volumes are calculated using the formula (0.5×L×W^2), where L and W are the longer and shorter of two bidirectional measurements.

[8] = Table 5, h1F6 conjugates, ~4 drugs/Ab
[9] = Table 10, h1F6-Drug(4) conjugates, aryl or alkyl maleimides
[10] = Table 4, h1F6 conjugates, ~4 drugs/Ab

AM-Asparagine-(D)Lysine-diaminoethane-propionyl maleimide [AM-Asn-(D)Lys]
in vivo efficacy, tumor volume (in words) [1]: more potent than corresponding AW-Met-(D)Lys conjugates
IC50 786-O (786-O; [8]): 0.02 µg/mL
IC50 786-O (786-O; [9]): 0.018 µg/mL
IC50 H3396 (H3396): 0.037 µg/mL
IC50 L2987 (L2987): 0.506 µg/mL
IC50 RCA (RCA): 8.362 µg/mL
IC50 L540cy (L540cy): 0.031 µg/mL
IC50 Karpas 299 (Karpas 299): 0.011 µg/mL
IC50 L428 (L428 [2]; [8]): 26 ng/mL
IC50 L428 (L428 [2]; [9]): 29 ng/mL
IC50 Caki-1 (Caki-1; [8]): 20 ng/mL
IC50 Caki-1 (Caki-1; [9]): 16 ng/mL
IC50 Caki-2 (Caki-2; [8]): 0.047 µg/mL
IC50 Caki-2 (Caki-2; [9]): 0.026 µg/mL
in vivo efficacy, tumor volume (in words) [3]: more potent than corresponding AW-Met-(D)Lys conjugates
IC50 SKOV-3 (SKOV-3): 7600 ng/mL
IC50 MCF-7 (MCF-7): 24 ng/mL
IC50 HCT-116 (CD70−) (HCT-116 (CD70−); Table 5, ~4 drugs/Ab): >1 µg/mL
IC50 Ramos (Ramos): 1 ng/mL
IC50 ARH-77 (ARH-77): 49 ng/mL
IC50 SUDHL-4 (SUDHL-4): >10,000 ng/mL
IC50 L428 (L428 [4]): 0.6 ng/mL

AW-Methionine-(D)Lysine-diaminoethane-propionyl maleimide [AW-Met-(D)Lys]
IC50 786-O (786-O; [8]): 0.02 µg/mL
IC50 786-O (786-O; [9]): 0.017 µg/mL
IC50 H3396 (H3396): 0.146 µg/mL
IC50 L2987 (L2987): 0.422 µg/mL
IC50 RCA (RCA): 5.217 µg/mL
IC50 L540cy (L540cy): 0.017 µg/mL
IC50 Karpas 299 (Karpas 299): 0.011 µg/mL
IC50 L428 (L428 [2]; [8]): >1000 ng/mL
IC50 L428 (L428 [2]; [9]): >1000 ng/mL
IC50 Caki-1 (Caki-1; [8]): 22 ng/mL
IC50 Caki-1 (Caki-1; [9]): 19 ng/mL
IC50 Caki-2 (Caki-2; [8]): 0.037 µg/mL
IC50 Caki-2 (Caki-2; [9]): 0.018 µg/mL
in vitro potency (in words) [5]: less active
IC50 SKOV-3 (SKOV-3): >10,000 ng/mL
IC50 MCF-7 (MCF-7): >10,000 ng/mL
IC50 HCT-116 (CD70−) (HCT-116 (CD70−); Table 5, ~4 drugs/Ab): >1 µg/mL
IC50 Ramos (Ramos): >10,000 ng/mL
IC50 ARH-77 (ARH-77): >10,000 ng/mL
IC50 SUDHL-4 (SUDHL-4): >10,000 ng/mL
IC50 L428 (L428 [4]): ~10,000 ng/mL

AF-Proline-(D)Lysine-diaminoethane-propionyl maleimide [AF-Pro-(D)Lys]
in vitro activity on CD70+ cells (in words) [6]: largely inactive
IC50 U251 (U251): 5.012 µg/mL
IC50 L428 (L428 [2]; [10]): >10,000 ng/mL
IC50 Caki-1 (Caki-1; [10]): >10,000 ng/mL
in vivo efficacy, tumor volume (in words) [7]: inactive
IC50 HCT-116 (CD70−) (HCT-116 (CD70−); Table 4, ~4 drugs/Ab): >1 µg/mL
